Measured values taken from patent US9216208B2, “Topical ophthalmic peptide formulation” (BCN Peptides, S.A., priority 2009, dated 2015).

How the values were obtained:
[1] = tested on: streptozotocin-induced diabetic rats; assay: Electroretinography after topical ocular treatment in diabetic rats; format: in vivo, Sprague Dawley rats; design: implicit time of the b-wave at 0 db compared to pretreatment: unit not given beside the values; details: for difference between the amplitude of the second OP (OP2) of the b-wave at 0 db / implicit time of the b-wave at 0 db compared to pretreatment: STZ 60 mg/kg rats; for difference between the amplitude of the second OP (OP2) of the b-wave at 0 db: FIG. 2; for implicit time of the b-wave at 0 db compared to pretreatment: after 14 days of treatment; for b-wave amplitude at −10 db and 0 db / b-wave amplitude at −30 db: compared to the diabetic group
Description: (§1) Streptozotocin (STZ), 60 mg/Kg, was administered to Sprague Dawley rats. The animals were divided in four groups as detailed in Table 1:
(§2) Two days after STZ was administered, animals were treated daily with one or two drops of vehicle (Group 2), eye drops of example 4 (Group 3) or eye drops of example 5 (Group 4) for additionally 14 days. Healthy control animals were only treated daily with one or two drops of vehicle (Group 1).
Electroretinography is a technique used clinically to evaluate retinal function in diabetic retinopathy. Several parameters can be affected in early stages of the disease: implicit time, amplitude and oscillatory potentials [Tzekov et al., Survey of Ophthalmology, 1999, 44(1): 53-60]. The increment of the implicit time and diminishment of amplitude of the oscillatory potentials (OPs) are also observed in streptozotocin-induced diabetic rats [Hancok et al., Investigative Ophthalmology & Visual Science, 2004, 45(3): 1002-1008].

[2] = tested on: Glial Fibrillar Protein (GFAP); assay: Glial activation by GFAP immunofluorescence (confocal microscopy) in retina of diabetic rats; format: in vivo, Sprague Dawley rats; details: for glial cell activation (GFAP expression, confocal images): day 14, ganglion cell layer, FIG. 3; for GFAP fluorescence value: day 14, normalized to the analysed area (21705.33 μm^2), diabetic Group 2 6871±159, healthy Group 1 2095±26
Description: as §1, §2
(§3) On day 14, the animals were sacrificed and ocular tissues paraffined. Glial activation and number of apoptotic cells were evaluated as markers of the first step in the development of diabetic retinopathy: retinal neurodegeneration [Carrasco et al., Diabetes Care; 2007, 30(11): 1-7].
Glial activation was determined analysing Glial Fibrillar Protein (GFAP) immunofluorescence by confocal microscopy. Ocular sections of 7 μm thickness were fixed on high adherent coverslips (Visionbiosystems, Newcastle Upon Tyne, UK). They were desparaffined, rehydrated and washed in phosphate buffer saline (PBS). Unspecific unions were blocked incubating the samples for 1 h in PBS 1% BSA (Bovine Serum Albumin) 0.5% Triton X-100. Thereafter, the primary rabbit anti-human GFAP antibody (Sigma, Madrid, Spain) diluted in the blocking buffer (1:100) was incubated for 36 h at 4° C. After three washings for 5 min with PBS, sections were incubated with a secondary antibody anti […] labelled with Alexa Fluor® 488 (Invitrogen, Eugene, Oreg.) for 1 h at room temperature. Labelled sections were washed and mounted with fluorescent medium containing 4,6-diamidino-2-phenylindole (DAPI) for staining cell nuclei (Vector Laboratories, Burlingame, Calif.). The sections positives for GFAP were captured in a confocal microscope (FV1000, Olympus. Hamburg, Germany) obtaining optical sections with a 488 nm laser for Alexa 488 and a 405 nm laser for DAPI. GFAP fluorescence was quantified in each image with the Fluoview ASW 1.4 software (Olympus, Hamburg, Germany). Results were normalized to the analysed area (21705.33 μm^2).

[3] = tested on: retinal cells of streptozotocin-induced diabetic rats; assay: Degree of apoptosis of the retina by TUNEL in diabetic rats; format: in vivo, Sprague Dawley rats; details: for retinal degeneration (TUNEL positive cells, confocal images): after 14 days of treatment, FIG. 4; for % Apoptotic cells GCL: ganglion cell layer; for % Apoptotic cells GCL / % Apoptotic cells INL / % Apoptotic cells ONL / % Apoptotic cells RPE: 14 days of treatment; for % Apoptotic cells INL: inner nuclear layer; for % Apoptotic cells ONL: outer nuclear layer; for % Apoptotic cells RPE: retinal pigment epithelium
Description: as §1, §2, §3
The evaluation of the degree of apoptosis of the retina after 14 days of treatment was done by using the TUNEL (“Terminal Transferase dUTP Nick-End Labeling”) technique. The In Situ Cell Death Detection Kit (Roche Diagnostics, Mannheim, Germany) was used. Ocular sections were desparaffined, rehydrated and washed in PBS. Three confocal images (40×) corresponding to a 317.13 μm×317.13 μm surface were obtained for each section. The total number of nuclei and nuclei positive for TUNEL were quantified with the Image J software (http://rsbweb.nih.gov/ij). Staining with propidium iodide (PI) was done for examining the nucleus morphology and discard false positives. […] Retinal degeneration correlated with a higher number of apoptotic cells (brightest labeling means TUNEL positive) observed in streptozotocin-induced diabetic rats (Group 2).
The increment in the percentage of apoptotic cells is significant in diabetic rats (Group 2). Topical ocular treatment with somatostatin (Group 3) or octreotide (Group 4) reduced the number of apoptotic cells till control levels (Group 1).

[4] = Evaluation of the concentration of topical ophthalmic somatostatin in the retina (Western blot); format: in vivo, C57BL/6 mice; details: eye drops of example 1, 1 drop of 5 μL twice a day for 5 days in right eye vs placebo in left eye; 2 hours after last dosage; Western blot densitometry
Description: Eight-week old C57BL/6 mice were used. The handling and care of the animals was carried out following the Institut de Recerca del Hospital Universitari Vall d'Hebron protocol and the European Economic Community and A.R.V.O. (Association for Research in Vision and Opthalmology) international guidelines (order 86/609/CEE). The animals were kept in individual cages in the animal facilities at a controlled temperature (20°) and humidity (60%), under constant cycles of light-darkness which last 12 hours and had free access to food and drink. The eye drops of somatostatin-14 from example 1 (1 drop of 5 μL) were administered to the right eye and the placebo (saline solution) to the left eye. Two drops were administered per day, one in the morning and another in the evening, for 5 days. The animals were euthanized by cervical dislocation under anesthetic 2 hours after the last dosage. Immediately afterwards the eyeballs were extracted and were frozen at −80° until handling. […] The quantity of somatostatin-14 in the retina was determined by Western blot. […] A densitometric analysis was carried out (Densitometer GS-800. Bio-Rad. Laboratories, Hercules, Calif., USA) and the results are expressed as arbitrary units. […] On control mice, who received the placebo in both eyes, no differences were detected in the concentration of somatostatin between both eyes.

Structure (SMILES) | difference between the amplitude of the second OP (OP2) of the b-wave at 0 db ([1]; Left eye (2 drops per day)) | implicit time of the b-wave at 0 db compared to pretreatment ([1]; Left eye (2 drops per day)) | difference between the amplitude of the second OP (OP2) of the b-wave at 0 db ([1]; Right eye (1 drop per day)) | implicit time of the b-wave at 0 db compared to pretreatment ([1]; Right eye (1 drop per day)) | b-wave amplitude at −10 db and 0 db [1] | b-wave amplitude at −30 db [1] | glial cell activation (GFAP expression, confocal images) [2] | GFAP fluorescence value [2] | retinal degeneration (TUNEL positive cells, confocal images) [3] | % Apoptotic cells GCL [3] | % Apoptotic cells INL [3] | % Apoptotic cells ONL [3] | % Apoptotic cells RPE [3] | amount of somatostatin in the retina [4]
C[C@@H](O)[C@@H]1NC(=O)[C@H](CCCCN)NC(=O)[C@@H](Cc2c[nH]c3ccccc23)NC(=O)[C@H](Cc2ccccc2)NC(=O)[C@@H](NC(=O)[C@H](N)Cc2ccccc2)CSSC[C@@H](C(=O)N[C@H](CO)[C@@H](C)O)NC1=O [octreotide] | 55.1 | 1.1 | 45.5 | 8.8 | effective only at the highest dose | prevented the diminishment | prevented glial cell activation | 1696±48 | prevented retinal degeneration | 7% | 0.1% | 5% | 11% | 
C[C@H](N)C(=O)NCC(=O)N[C@H]1CSSC[C@@H](C(=O)O)NC(=O)[C@H](CO)NC(=O)[C@H]([C@@H](C)O)NC(=O)[C@H](Cc2ccccc2)NC(=O)[C@H]([C@@H](C)O)NC(=O)[C@H](CCCCN)NC(=O)[C@H](Cc2c[nH]c3ccccc23)NC(=O)[C@H](Cc2ccccc2)NC(=O)[C@H](Cc2ccccc2)NC(=O)[C@H](CC(N)=O)NC(=O)[C@H](CCCCN)NC1=O [somatostatin, somatostatin-14] | 68.7 | 4.9 | 44.8 | 9.0 | prevented the diminishment | prevented the diminishment | prevented glial cell activation | 2514±90 | prevented retinal degeneration | 14% | 1% | 3% | 6% | greater in the treated eye on both animals
